Results from patent publication US11192867B2, “Microbiocidal oxadiazole derivatives” (SYNGENTA PARTICIPATIONS AG, priority 2016, dated 2021).

Assays:
[1] = tested on: Puccinia recondita f. sp. Tritici; experiment: Fungicidal activity against Puccinia recondita f. sp. Tritici / wheat / leaf disc preventative (brown rust); type: in vivo; settings: foliar, 200 ppm in the applied formulation, wheat leaf segments cv. Kanzler, inoculated 1 day after application, vs untreated control, read-out: disease control
Method: Leaf disks or leaf segments of various plant species are cut from plants grown in a greenhouse. The cut leaf disks or segments are placed in multiwell plates (24-well format) onto water agar. The leaf disks are sprayed with a test solution before (preventative) or after (curative) inoculation. Compounds to be tested are prepared as DMSO solutions (max. 10 mg/ml) which are diluted to the appropriate concentration with 0.025% Tween20 just before spraying. The inoculated leaf disks or segments are incubated under defined conditions (temperature, relative humidity, light, etc.) according to the respective test system. A single evaluation of disease level is carried out 3 to 14 days after inoculation, depending on the pathosystem. Percent disease control relative to the untreated check leaf disks or segments is then calculated. Wheat leaf segments cv. Kanzler were placed on agar in multiwell plates (24-well format) and sprayed with the formulated test compound diluted in water. The leaf disks were inoculated with a spore suspension of the fungus 1 day after application. The inoculated leaf segments were incubated at 19° C. and 75% relative humidity (rh) under a light regime of 12 hours light/12 hours darkness in a climate cabinet and the activity of a compound was assessed as percent disease control compared to untreated when an appropriate level of disease damage appears in untreated check leaf segments (7 to 9 days after application). The following compounds at 200 ppm in the applied formulation give at least 80% disease control in this test when compared to untreated control leaf disks under the same conditions, which show extensive disease development.

Phakopsora pachyrhizi = experiment: Fungicidal activity against Phakopsora pachyrhizi / soybean / leaf disc preventative (Asian soybean rust); type: in vivo; settings: foliar, 200 ppm in the applied formulation, soybean leaf disks, vs untreated control, read-out: disease control
Method: Leaf disks or leaf segments of various plant species are cut from plants grown in a greenhouse. The cut leaf disks or segments are placed in multiwell plates (24-well format) onto water agar. The leaf disks are sprayed with a test solution before (preventative) or after (curative) inoculation. Compounds to be tested are prepared as DMSO solutions (max. 10 mg/ml) which are diluted to the appropriate concentration with 0.025% Tween20 just before spraying. The inoculated leaf disks or segments are incubated under defined conditions (temperature, relative humidity, light, etc.) according to the respective test system. A single evaluation of disease level is carried out 3 to 14 days after inoculation, depending on the pathosystem. Percent disease control relative to the untreated check leaf disks or segments is then calculated. Soybean leaf disks are placed on water agar in multiwell plates (24-well format) and sprayed with the formulated test compound diluted in water. One day after application leaf discs are inoculated by spraying a spore suspension on the lower leaf surface. After an incubation period in a climate cabinet of 24-36 hours in darkness at 20° C. and 75% rh leaf disc are kept at 20° C. with 12 hours light/12 hours and 75% rh. The activity of a compound is assessed as percent disease control compared to untreated when an appropriate level of disease damage appears in untreated check leaf disks (12 to 14 days after application). The following compounds at 200 ppm in the applied formulation give at least 80% disease control in this test when compared to untreated control leaf disks under the same conditions, which show extensive disease development.

[2] = tested on: Glomerella lagenarium (Colletotrichum lagenarium); experiment: Fungicidal activity against Glomerella lagenarium (Colletotrichum lagenarium) liquid culture / cucumber / preventative (anthracnose); type: cell-based; settings: Colletotrichum orbiculare, 72 h; 20 ppm in the applied formulation; liquid culture (PDB), growth inhibition measured photometrically 3 to 4 days after application; vs untreated control; read-out: disease control
Method: Mycelia fragments or conidia suspensions of a fungus prepared either freshly from liquid cultures of the fungus or from cryogenic storage, are directly mixed into nutrient broth. DMSO solutions of the test compound (max. 10 mg/ml) are diluted with 0.025% Tween20 by a factor of 50 and 10 μl of this solution is pipetted into a microtiter plate (96-well format). The nutrient broth containing the fungal spores/mycelia fragments is then added to give an end concentration of the tested compound. The test plates are incubated in the dark at 24° C. and 96% relative humidity. The inhibition of fungal growth is determined photometrically after 2 to 7 days, depending on the pathosystem, and percent antifungal activity relative to the untreated check is calculated.
Conidia of the fungus from cryogenic storage are directly mixed into nutrient broth (PDB—potato dextrose broth). After placing a (DMSO) solution of test compound into a microtiter plate (96-well format), the nutrient broth containing the fungal spores is added. The test plates are incubated at 24° C. and the inhibition of growth is measured photometrically 3 to 4 days after application.
The following compounds at 20 ppm in the applied formulation give at least 80% disease control in this test when compared to untreated control under the same conditions, which show extensive disease development.

| Structure (SMILES) | pest or weed control at 200 ppm [1] [%] | pest or weed control at 200 ppm (Phakopsora pachyrhizi) [%] | inhibition of growth at 20 ppm [2] [%] |
| --- | --- | --- | --- |
| CC(C=NOC1CCCCO1)NC(=O)c1ccc(-c2noc(C(F)(F)F)n2)cc1 (stereo not shown) [Compound 1.25, N-(1-methyl-2-tetrahydropyran-2-yloxyimino-ethyl)-4-[5-(trifluoromethyl)-1,2,4-oxadiazol-3-yl]benzamide] | ≥ 80 | ≥ 80 | ≥ 80 |
| CCCCON=CC(C)NC(=O)c1ccc(-c2noc(C(F)(F)F)n2)cc1 (stereo not shown) [Compound 1.40, N-(2-butoxyimino-1-methyl-ethyl)-4-[5-(trifluoromethyl)-1,2,4-oxadiazol-3-yl]benzamide] | ≥ 80 | ≥ 80 | ≥ 80 |
| CC(C=NOC(C)(C)C)NC(=O)c1ccc(-c2noc(C(F)(F)F)n2)cc1 (stereo not shown) [Compound 1.45, N-(2-tert-butoxyimino-1-methyl-ethyl)-4-[5-(trifluoromethyl)-1,2,4-oxadiazol-3-yl]benzamide] | ≥ 80 | ≥ 80 | ≥ 80 |
| CC(C=NOCc1ccccc1CC(=O)O)NC(=O)c1ccc(-c2noc(C(F)(F)F)n2)cc1 (stereo not shown) [Compound 1.48, 2-[2-[[2-[[4-[5-(trifluoromethyl)-1,2,4-oxadiazol-3-yl]benzoyl]amino]propylideneamino]oxymethyl]phenyl] acetic acid] | ≥ 80 | ≥ 80 | ≥ 80 |
| COC(=O)Cc1ccccc1CON=CC(C)NC(=O)c1ccc(-c2noc(C(F)(F)F)n2)cc1 (stereo not shown) [Compound 1.49, methyl 2-[2-[[2-[[4-[5-(trifluoromethyl)-1,2,4-oxadiazol-3-yl]benzoyl]amino]propylideneamino]oxymethyl]phenyl]acetate] | ≥ 80 | – | ≥ 80 |
| CC(C=NOC(C)C)NC(=O)c1ccc(-c2noc(C(F)(F)F)n2)cc1 (stereo not shown) [Compound 1.50, N-(2-isopropoxyimino-1-methyl-ethyl)-4-[5-(trifluoromethyl)-1,2,4-oxadiazol-3-yl]benzamide] | ≥ 80 | ≥ 80 | ≥ 80 |
| C=C(Cl)CON=CC(C)NC(=O)c1ccc(-c2noc(C(F)(F)F)n2)cc1 (stereo not shown) [Compound 1.56, N-[2-(2-chloroallyloxy-imino)-1-methyl-ethyl]-4-[5-(trifluoromethyl)-1,2,4-oxadiazol-3-yl]benzamide] | ≥ 80 | ≥ 80 | ≥ 80 |
| O=C(NCC=NOCc1ccc([N+](=O)[O-])cc1)c1ccc(-c2noc(C(F)(F)F)n2)cc1 [Compound 1.61, N-[2-[(4-nitrophenyl)methoxyimino]ethyl]-4-[5-(trifluoromethyl)-1,2,4-oxadiazol-3-yl]benzamide] | ≥ 80 | ≥ 80 | – |
| COc1cccc(CON=CCNC(=O)c2ccc(-c3noc(C(F)(F)F)n3)cc2)c1 [Compound 1.62, N-[2-[(3-methoxyphenyl)methoxyimino]ethyl]-4-[5-(trifluoromethyl)-1,2,4-oxadiazol-3-yl]benzamide] | ≥ 80 | ≥ 80 | ≥ 80 |
| COc1ccc(CON=CCNC(=O)c2ccc(-c3noc(C(F)(F)F)n3)cc2)cc1 [Compound 1.64, N-[2-[(4-methoxyphenyl)methoxyimino]ethyl]-4-[5-(trifluoromethyl)-1,2,4-oxadiazol-3-yl]benzamide] | ≥ 80 | ≥ 80 | ≥ 80 |
| O=C(O)CON=CCNC(=O)c1ccc(-c2noc(C(F)(F)F)n2)cc1 [Compound 1.65, 2-[2-[[4-[5-(trifluoromethyl)-1,2,4-oxadiazol-3-yl]benzoyl]amino]ethylideneamino] oxyacetic acid] | ≥ 80 | ≥ 80 | ≥ 80 |
| O=C(NCC=NOCc1ccccc1Cl)c1ccc(-c2noc(C(F)(F)F)n2)cc1 [Compound 1.67, N-[2-[(2-chlorophenyl)methoxyimino]ethyl]-4-[5-(trifluoromethyl)-1,2,4-oxadiazol-3-yl]benzamide] | ≥ 80 | ≥ 80 | ≥ 80 |
| COc1ccccc1CON=CCNC(=O)c1ccc(-c2noc(C(F)(F)F)n2)cc1 [Compound 1.68, N-[2-[(2-methoxyphenyl)methoxyimino]ethyl]-4-[5-(trifluoromethyl)-1,2,4-oxadiazol-3-yl]benzamide] | ≥ 80 | ≥ 80 | ≥ 80 |
| O=C(NCC=NOCc1ccccc1F)c1ccc(-c2noc(C(F)(F)F)n2)cc1 [Compound 1.69, N-[2-[(2-fluorophenyl)methoxyimino]ethyl]-4-[5-(trifluoromethyl)-1,2,4-oxadiazol-3-yl]benzamide] | ≥ 80 | ≥ 80 | ≥ 80 |
| O=C(NCC=NOCc1ccc(F)cc1Cl)c1ccc(-c2noc(C(F)(F)F)n2)cc1 [Compound 1.71, N-[2-[(2-chloro-4-fluoro-phenyl)methoxy-imino]ethyl]-4-[5-(trifluoromethyl)-1,2,4-oxadiazol-3-yl]benzamide] | ≥ 80 | ≥ 80 | ≥ 80 |
| O=C(NCC=NOCC=C(Cl)Cl)c1ccc(-c2noc(C(F)(F)F)n2)cc1 [Compound 1.79, N-[2-(3,3-dichloroallyloxy-imino)ethyl]-4-[5-(trifluoromethyl)-1,2,4-oxadiazol-3-yl]benzamide] | ≥ 80 | ≥ 80 | ≥ 80 |
| CC(C)=CCON=CCNC(=O)c1ccc(-c2noc(C(F)(F)F)n2)cc1 [Compound 1.80, N-[2-(3-methylbut-2-enoxyimino)ethyl]-4-[5-(trifluoromethyl)-1,2,4-oxadiazol-3-yl]benzamide] | ≥ 80 | ≥ 80 | ≥ 80 |
| COc1cccc(CON=C(C)CNC(=O)c2ccc(-c3noc(C(F)(F)F)n3)cc2)c1 [Compound 1.106, N-[2-[(3-methoxyphenyl)methoxyimino]propyl]-4-[5-(trifluoromethyl)-1,2,4-oxadiazol-3-yl]benzamide] | ≥ 80 | – | ≥ 80 |
| CC(CNC(=O)c1ccc(-c2noc(C(F)(F)F)n2)cc1)=NOCC(=O)O [Compound 1.109, 2-[[1-methyl-2-[[4-[5-(trifluoromethyl)-1,2,4-oxadiazol-3-yl]benzoyl]amino]ethylidene]amino] oxyacetic acid] | ≥ 80 | – | ≥ 80 |
| CC(CNC(=O)c1ccc(-c2noc(C(F)(F)F)n2)cc1)=NOCc1ccccc1CC(=O)O [Compound 1.136, 2-[2-[[[1-methyl-2-[[4-[5-(trifluoromethyl)-1,2,4-oxadiazol-3-yl]benzoyl]amino]ethylidene]amino]oxymethyl]phenyl]acetic acid] | ≥ 80 | – | ≥ 80 |
